In PMC9865752, “Design and Synthesis of (Z)-2-(Benzylamino)-5-benzylidenethiazol-4(5H)-one Derivatives as Tyrosinase Inhibitors and Their Anti-Melanogenic and Antioxidant Effects” (Molecules, 2023):
Where two headings read alike, the source gives them in different places.

Tests used:
[1] = target: T1, mushroom tyrosinase (Agaricus bisporus, UniProt C7FF04); assay: Kinetic studies of mushroom tyrosinase inhibition (Lineweaver–Burk and Dixon plots); type: biochemical; conditions: substrate L-dopa
T1 construct: purchased
T1 sequence (C7FF04 1-392): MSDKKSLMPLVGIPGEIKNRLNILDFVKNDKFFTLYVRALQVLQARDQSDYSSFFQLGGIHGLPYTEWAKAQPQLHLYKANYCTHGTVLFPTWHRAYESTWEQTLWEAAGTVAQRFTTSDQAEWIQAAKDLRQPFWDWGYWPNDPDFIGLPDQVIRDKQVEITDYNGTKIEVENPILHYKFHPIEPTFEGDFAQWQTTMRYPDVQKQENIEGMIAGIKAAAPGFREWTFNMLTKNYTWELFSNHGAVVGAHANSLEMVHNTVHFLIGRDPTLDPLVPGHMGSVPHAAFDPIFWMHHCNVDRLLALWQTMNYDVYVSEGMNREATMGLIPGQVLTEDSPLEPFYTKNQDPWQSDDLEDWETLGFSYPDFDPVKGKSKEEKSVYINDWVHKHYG
Experimental: Kinetic studies using Lineweaver–Burk plots were performed using four different concentrations (0, 0.5, 1, and 2 µM) of the test derivatives (7 and 8) and five different concentrations (0.5, 1, 2, 4, and 8 mM for 7, and 1, 2, 4, 8, and 16 mM for 8) of L-dopa.
Lineweaver–Burk plots for 7 and 8 were transformed into the corresponding Dixon plots to determine their inhibition constant (Ki) values for the mushroom tyrosinase–inhibitor complex. […] The Ki values for the mushroom tyrosinase–inhibitor complex were obtained from the x-axis value of each convergence point.
Lineweaver–Burk plots of derivatives 7 and 8 were obtained in the presence of L-dopa as the substrate. Briefly, 20 µL aliquots of mushroom tyrosinase aqueous solution (200 units/mL) were added to each well of a 96-well plate containing 10 µL BABT derivative (7 or 8) DMSO solution (final concentrations: 0, 0.5, 1, and 2 µM) and 170 µL of an aqueous solution containing L-dopa (final concentrations: 1.0, 2.0, 4.0, 8.0, and 16.0 mM) and sodium phosphate buffer (pH 6.5, 17.2 mM). The initial rate of dopachrome formation was determined by examining the changes in absorbance at a wavelength of 475 nm (ΔOD475/min) using a microplate reader (VersaMax; Molecular Devices).

[2] = test system: B16F10 cells; assay: Cell viability (EZ-Cytox assay); type: cell-based, murine; conditions: 0, 1, 2, 5, 10, 20 µM
Experimental: Before these experiments were performed, the influence of these derivatives on cytotoxicity in B16F10 cells was examined to determine their optimal concentration range for B16F10 cell experiments. The cytotoxicity of derivatives 7 and 8 at six concentrations (0, 1, 2, 5, 10, and 20 µM) was assessed using the EZ-Cytox assay.
Cytotoxicity assays in B16F10 cells were performed using the EZ-Cytox solution (EZ-3000, DoGenBio, Seoul, Republic of Korea). Briefly, B16F10 cells were seeded at a density of 1 × 10^4 cells per well and cultured at 37 °C in a 5% CO2 atmosphere for 24 h. […] Then, the EZ-Cytox solution (10 μL aliquot) was added to each well. After 2 h of incubation at 37 °C, the optical density of each well was measured at 450 nm using a microplate reader (VersaMax; Molecular Devices).

[3] = target: mushroom tyrosinase; assay: Mushroom tyrosinase inhibition assay; type: biochemical; conditions: for IC50: mean ± SEM of three experiments
Experimental: As mushroom tyrosinase is commercially available and relatively cheap, it is used as a tool for the identification of novel tyrosinase inhibitors. Here, we examined the tyrosinase inhibitory activities of the 14 BABT derivatives against mushroom tyrosinase in the presence of L-tyrosine or L-dopa as substrates.
Mushroom tyrosinase inhibitory activities of BABT derivatives were determined as described previously, with minor modifications. L-Tyrosine and L-dopa were used as substrates to evaluate the enzyme activity. […] Assay mixtures were incubated at 37 °C for 30 min, and dopachrome amounts synthesized were determined by measuring the optical density of each well at 475 nm using a microplate reader (VersaMax; Molecular Devices, Sunnyvale, CA, USA).

[4] = DPPH radical scavenging assay; conditions: test samples 500 µM; DPPH 0.18 mM; 30 min in the dark
Experimental: DPPH is a light-sensitive compound containing free radicals. The DPPH assay is one of the most common methods for evaluating the antioxidant activity of a compound. The effects of BABT derivatives on DPPH radical scavenging activities were evaluated using L-ascorbic acid as a positive reference control. DPPH radical scavenging activities were measured after leaving the mixed samples (test samples of 500 µM plus DPPH solution of 0.18 mM) in the dark for 30 min. To determine the radical scavenging activities, the absorbance of the mixed samples was measured at 517 nm.
According to previously described methods, with minor modifications, the DPPH radical scavenging activities of BABT derivatives 1–14 were measured. A DPPH (0.2 mM) and methanol solution (180 µL) was mixed with 20 µL of a DMSO solution containing 5 mM BABT derivative, or with 20 µL of an aqueous solution of 5 mM L-ascorbic acid, in each well of a 96-well plate and kept at ambient temperature in the dark for 30 min. The optical density of each well was measured at 517 nm using a microplate reader (VersaMax; Molecular Devices). L-Ascorbic acid was used as a positive reference control, and the DPPH radical scavenging abilities of BABT derivatives were compared with those of L-ascorbic acid. All experiments were performed independently, thrice.

[5] = SIN-1-induced ROS scavenging assay; conditions: 20 µM; SIN-1 as ROS generator; DCFH-DA probe
Excerpt: The scavenging activities of the BABT derivatives 1–14 against ROS and peroxynitrite (ONOO^−) were investigated because the antioxidant activities of the compounds may modulate melanogenesis. To measure the ROS scavenging activities of BABT derivatives, 2′,7′-dichlorodihydrofluorescein diacetate (DCFH-DA) and 3-morpholinosydnonimine (SIN-1) were used as a fluorogenic probe and ROS generator, respectively. The reaction of DCFH-DA with esterase produces 2′,7′-dichlorodihydrofluorescein (DCFH), which generates the fluorescent compound 2′,7′-dichlorofluorescein (DCF) by reacting with ROS produced by SIN-1. Therefore, ROS scavenging activities were determined by measuring the DCF fluorescence remaining after the BABT derivatives scavenged the ROS generated by SIN-1. […] BABT derivatives and Trolox, the positive control, were used at a concentration of 20 µM.
The ROS scavenging activities of the BABT derivatives were measured using an oxidant-sensitive fluorescent probe. Derivatives or Trolox (10 µL; final concentration: 20 µM) were seeded in a black 96-well plate. Then, 10 µL of SIN-1 (10 µM) was added to induce radical species generation and mixed with 180 µL of sodium phosphate buffer (pH 7.4) containing 12.5 µM DCF-DA and 600 units of esterase. Fluorescence intensity was measured at emission and excitation wavelengths of 535 and 485 nm, respectively, using a fluorescence microplate reader (Berthold Technologies GmbH & Co., Wien, Austria). Trolox was used as the positive control.

[6] = ABTS radical scavenging assay; conditions: test samples 100 µM; 2 min in the dark
Experimental: An antioxidant assay using ABTS is also commonly used to assess the antioxidant activities of compounds. Donation of one electron from ABTS to potassium persulfate generates the ABTS radical cation. An ABTS radical scavenging activity assay was performed using 100 µM of BABT derivatives or Trolox (a positive reference control) by mixing test samples with ABTS radical cations obtained from a reaction of potassium persulfate and ABTS. ABTS radical scavenging activity was assessed by measuring the optical density at 734 nm after leaving the test sample–ABTS radical cation mixture in the dark for 2 min.
According to a previously described method, with minor modifications, the ABTS radical scavenging activities of BABT derivatives 1–14 were assessed. Briefly, an ABTS radical solution was prepared by mixing 10 mL of aqueous ABTS solution (7 mM) with 10 mL of potassium persulfate aqueous solution (2.45 mM), and the mixture was kept for 11–15 h in the dark at room temperature until the absorbance remained constant. Prior to the antioxidant assay experiments, the ABTS radical solution was diluted with water to adjust the absorbance at 734 nm to 0.70 ± 0.02. A 10 µL aliquot of BABT derivatives or Trolox at a concentration of 1000 µM was added to 90 µL of ABTS+ free radical solution in each well of a 96-well plate and incubated for 2 min in the dark at ambient temperature. The absorbance of each well was measured at 734 nm using a microplate reader (VersaMax; Molecular Devices). The ABTS+ radical scavenging activities of BABT derivatives were compared to those of Trolox. All experiments were carried out independently, thrice.

[7] = Peroxynitrite scavenging assay; conditions: 20 µM; SIN-1 as generator; DHR123 probe
Experimental: The effects of the BABT derivatives on peroxynitrite scavenging activities were also examined using SIN-1 as an RNS generator and dihydrorhodamine (DHR123) as an ROS indicator. DHR123 was converted to fluorescent rhodamine 123 by peroxynitrite generated by SIN-1. Therefore, the peroxynitrite scavenging activities of 1–14 were assessed by measuring the fluorescence of rhodamine 123. BABT derivatives and penicillamine, the positive control, were used at a concentration of 20 µM.
The peroxynitrite scavenging activities of the BABT derivatives were assessed using the method developed by Kooy, involving the monitoring of highly fluorescent rhodamine 123, which was rapidly produced from non-fluorescent DHR123 in the presence of peroxynitrite. Rhodamine buffer (pH 7.4) was composed of 50 mM sodium phosphate dibasic, 50 mM sodium phosphate monobasic, 90 mM sodium chloride, 5 mM potassium chloride, and 100 µM DTPA. A 10 µL aliquot of BABT derivatives or PCA (final concentration: 20 µM) was seeded in a black 96-well plate. Then, 10 µL of SIN-1 (10 µM) was added to induce radical species generation and mixed with 180 µL of rhodamine buffer. Fluorescence intensity was measured at emission and excitation wavelengths of 535 and 485 nm, respectively, using a fluorescence microplate reader (Berthold Technologies GmbH & Co.). PCA was used as the positive control.

[8] = target: mushroom tyrosinase; design: method as in PMID 26235587; conditions: in the presence of L-tyrosine; cited from earlier work
[9] = substrate L-tyrosine, read-out: IC50 (µM) L-Tyrosine

Structure (SMILES): COc1ccc(/C=C2\SC(NCc3ccccc3)=NC2=O)cc1O [Compound 7, (Z)-2-(benzylamino)-5-(3-hydroxy-4-methoxybenzylidene)thiazol-4(5H)-one]
- Ki ([1]; Dixon plots, read-out: inhibition constant (Ki) for the mushroom tyrosinase–inhibitor complex): 3.1 µM
- mode of inhibition ([1]; Lineweaver–Burk plots): competitive inhibitors
- cytotoxicity ([2]; 72 h): showed cytotoxicity at a concentration of 20 µM
- cytotoxicity ([2]; up to 48 h): not cytotoxic at all concentrations
- IC50 ([3]; substrate L-dopa, read-out: IC50 (µM) L-Dopa): 10.3 ± 0.24 µM
- fold stronger tyrosinase inhibitory activity than derivative 5 ([3]; substrate L-tyrosine): 14.8 fold
- IC50 [3, 9]: 10 ± 0.9 µM
- DPPH radical scavenging activity, % inhibition [4]: 47%
- ROS scavenging activity (in words) [5]: moderate ROS scavenging activities

Structure (SMILES): O=C1N=C(NCc2ccccc2)S/C1=C\c1ccc(O)c(O)c1 [Compound 9, (Z)-2-(benzylamino)-5-(3,4-dihydroxybenzylidene)thiazol-4(5H)-one]
- ABTS radical scavenging activity, % inhibition [6]: 87%
- fold more potent than kojic acid ([3]; substrate L-dopa): 2 fold
- IC50 [3, 9]: > 300 µM
- DPPH radical scavenging activity, % inhibition [4]: 89%
- peroxynitrite scavenging activity (in words) [7]: strong ROS and peroxynitrite scavenging activities
- ROS scavenging activity (in words) [5]: strongly reduced the ROS levels enhanced by SIN-1

Structure (SMILES): O=C1N=C(Nc2nc3ccccc3s2)S/C1=C\c1ccc(O)cc1O [MHY2081]
- IC50 [8]: 1.8 µM

Structure (SMILES): Cc1c(C)c2c(c(C)c1O)CCC(C)(C(=O)O)O2 (stereo not drawn) [Trolox, reference compound]
- ABTS radical scavenging activity, % inhibition [6]: 99%
- ROS scavenging activity (in words) [5]: reduced the ROS levels enhanced by SIN-1
